Assay results: US20040175773A1, “Screening method based on siah-numb interaction” (priority 2000, published 2004)
Where a SMILES comes first, the peptide text is derived from it. The star is where a group is joined. Cbz = O=C(OCc1ccccc1)*

Legend:
[1] = system: Notch1 nuclear translocation in U937 cells; conditions: 10 mM EDTA in PBS at 37° C. for 30 min; labelled 30 min (T=30) after removing the EDTA
Protocol: A. Stable U937 transfectants which were expressing either the control vector (panels 1 to 3) or Siah-1 (panels 4 to 7) were analysed using a confocal microscope for the endogenous immunofluorescence of Notch1. The cells were labelled with an antibody which recognized the cytoplasmic portion of human Notch1, followed by an FITC-conjugated secondary antibody. The Notch immunofluorescence analysis is related either to low magnification (panels 1 and 4) or to high magnification (panels 2, 3, 5, 6 and 7). […] The labelling with propidium iodide was included in order to better visualize the nuclear labelling of Notch1 (panels 3, 6 and 7). […] The bar represents a length of 5 μm.
Cells were incubated in 10 mM EDTA containing PBS at 37° C. for 30 min, and then washed and labelled with anti-Notch1 (intracellular) antibodies either immediately (T=0) or 30 min (T=30) after removing the EDTA. The cells were counterlabelled with propidium iodide in order to visualize the nucleus.

[2] = system: quantity of Numb protein in 293T cells; assay: Western blot of Numb protein in transfected 293T cells with or without proteasome inhibitor; format: cell-based, human; conditions: 293T cells cotransfected with Numb, Siah-1 +/- Mdm2; 50 μM MG132 for 6 hours; anti-Numb Western blot, FIG. 2B lanes 6, 7 and 8
Protocol: FIG. 2: Analysis of the effect of the in vivo interaction between Siah and Numb on the levels at which the proteins are expressed. FIG. 2.A. 293T cells were cotransfected with an empty expression vector (column 1) or expressing Numb (column 2), Siah-1 (column 3), Numb and Siah-1 (column 4), Numb and Mdm2 (column 5), and Numb, Siah-1 and Mdm2 (column 6). 48 hours after transfection, a Western blot analysis was carried out using an anti-Numb antibody. A control was also performed using an anti-GFP (green fluorescent protein) antibody as a loading standard on the gel. FIG. 2.B. The Western blot was analysed as previously described in the absence or presence of an inhibitor of the ubiquitin proteasome (MG 132). Without MG 132, the quantity of Numb protein decreases in the presence of Siah-1, with or without Mdm2 (lanes 2, 3 and 4). […]
The cell lysates were separated by SDS-PAGE gel electrophoresis and transferred to a nitrocellulose membrane (Biorad), with this being followed by a Western blot analysis using the Numb polyclonal antibody (Weizmann Institute, Ref. 3465, or reference N80220 from Transduction Laboratories) and the anti-GFP monoclonal antibody (Boehringer, Ref. 1814460) in order to verify standardization of the quantities which were loaded onto the gel. […]

O=C(O)CN(CCN(CC(=O)O)CC(=O)O)CC(=O)O [EDTA]
nuclear translocation of Notch1 [1]: positive Notch1 labelling in the nucleus

CC(C)C[C@@H](C=O)NC(=O)[C@H](CC(C)C)NC(=O)[C@H](CC(C)C)NC(=O)OCc1ccccc1 [MG 132] (Cbz-Leu-Leu-Leu-aldehyde)
quantity of Numb protein in the presence of Siah-1, with or without Mdm2 [2]: remains constant
